Results published in ChEMBL document CHEMBL3621085, “Tetrazole regioisomers in the development of nitro group-containing antitubercular agents” (Medchemcomm, 2015).
≈ marks a conversion by molar mass, not a printed value.

Key:
Mycobacterium avium [1] = assay: Antimycobacterial activity against Mycobacterium avium My 330/88 after 14 days by micromethod; type: functional; conditions: My 330/88, 336 h
Mycobacterium kansasii [2] = assay: Antimycobacterial activity against Mycobacterium kansasii My 235/80 after 7 days by micromethod; type: functional; conditions: My 235/80, 168 h
[3] = Cytotoxicity against CHOK1 cells assessed as viability after 24 hrs by MTT assay; type: cell-based; conditions: Cricetulus griseus, CHO-K1, 24 h
Mycobacterium avium [4] = assay: Antimycobacterial activity against Mycobacterium avium My 330/88 after 21 days by micromethod; type: functional; conditions: My 330/88, 504 h
Mycobacterium kansasii [5] = assay: Antimycobacterial activity against Mycobacterium kansasii 6509/96 after 21 days by micromethod; type: functional; conditions: 6509/96, 504 h
Mycobacterium kansasii [6] = assay: Antimycobacterial activity against Mycobacterium kansasii 6509/96 after 14 days by micromethod; type: functional; conditions: 6509/96, 336 h
Mycobacterium kansasii [7] = assay: Antimycobacterial activity against Mycobacterium kansasii My 235/80 after 21 days by micromethod; type: functional; conditions: My 235/80, 504 h
[8] = tested on: Mycobacterium tuberculosis; assay: Antimycobacterial activity against Mycobacterium tuberculosis My 331/88 after 21 days by micromethod; type: functional; conditions: My 331/88, 504 h
[9] = tested on: Mycobacterium tuberculosis; assay: Antimycobacterial activity against Mycobacterium tuberculosis My 331/88 after 14 days by micromethod; type: functional; conditions: My 331/88, 336 h
Mycobacterium kansasii [10] = assay: Antimycobacterial activity against Mycobacterium kansasii 6509/96 after 7 days by micromethod; type: functional; conditions: 6509/96, 168 h
Mycobacterium kansasii [11] = assay: Antimycobacterial activity against Mycobacterium kansasii My 235/80 after 14 days by micromethod; type: functional; conditions: My 235/80, 336 h

Compound	MIC (Mycobacterium avium [1]) [µM]	MIC (Mycobacterium kansasii [2]) [µM]	IC50 [3] [µM]	MIC (Mycobacterium avium [4]) [µM]	MIC (Mycobacterium kansasii [5]) [µM]	MIC (Mycobacterium kansasii [6]) [µM]	MIC (Mycobacterium kansasii [7]) [µM]	MIC [8] [µM]	MIC [9] [µM]	MIC (Mycobacterium kansasii [10]) [µM]	MIC (Mycobacterium kansasii [11]) [µM]
O=[N+]([O-])c1cc(Cn2nnc(SCc3ccccc3)n2)cc([N+](=O)[O-])c1	125 (≈ 46.5 µg/mL)	16 (≈ 5.96 µg/mL)	148	125 (≈ 46.5 µg/mL)	32 (≈ 11.9 µg/mL)	32 (≈ 11.9 µg/mL)	32 (≈ 11.9 µg/mL)	16 (≈ 5.96 µg/mL)	16 (≈ 5.96 µg/mL)	16 (≈ 5.96 µg/mL)	32 (≈ 11.9 µg/mL)
O=[N+]([O-])c1ccc(Cn2nnc([Se]Cc3ccccc3)n2)c([N+](=O)[O-])c1	4 (≈ 1.68 µg/mL)	8 (≈ 3.35 µg/mL)		8 (≈ 3.35 µg/mL)	32 (≈ 13.4 µg/mL)	16 (≈ 6.71 µg/mL)	16 (≈ 6.71 µg/mL)	1 (≈ 0.419 µg/mL)	1 (≈ 0.419 µg/mL)	8 (≈ 3.35 µg/mL)	16 (≈ 6.71 µg/mL)
O=[N+]([O-])c1cc(Cn2nnnc2[Se]Cc2ccccc2)cc([N+](=O)[O-])c1	32 (≈ 13.4 µg/mL)	8 (≈ 3.35 µg/mL)	85	32 (≈ 13.4 µg/mL)	32 (≈ 13.4 µg/mL)	32 (≈ 13.4 µg/mL)	32 (≈ 13.4 µg/mL)	8 (≈ 3.35 µg/mL)	8 (≈ 3.35 µg/mL)	16 (≈ 6.71 µg/mL)	16 (≈ 6.71 µg/mL)
COc1ccc(C[Se]c2nnn(Cc3cc([N+](=O)[O-])cc([N+](=O)[O-])c3)n2)cc1	16 (≈ 7.19 µg/mL)	8 (≈ 3.59 µg/mL)		32 (≈ 14.4 µg/mL)	32 (≈ 14.4 µg/mL)	32 (≈ 14.4 µg/mL)	16 (≈ 7.19 µg/mL)	8 (≈ 3.59 µg/mL)	4 (≈ 1.8 µg/mL)	16 (≈ 7.19 µg/mL)	16 (≈ 7.19 µg/mL)
O=[N+]([O-])c1ccc(CSc2nnn(Cc3ccccc3)n2)c([N+](=O)[O-])c1	32 (≈ 11.9 µg/mL)	16 (≈ 5.96 µg/mL)	21	62 (≈ 23.1 µg/mL)	32 (≈ 11.9 µg/mL)	16 (≈ 5.96 µg/mL)	62 (≈ 23.1 µg/mL)	4 (≈ 1.49 µg/mL)	4 (≈ 1.49 µg/mL)	8 (≈ 2.98 µg/mL)	32 (≈ 11.9 µg/mL)
O=[N+]([O-])c1ccc(C[Se]c2nnnn2Cc2ccccc2)c([N+](=O)[O-])c1	250 (≈ 105 µg/mL)	16 (≈ 6.71 µg/mL)	8.5	250 (≈ 105 µg/mL)	125 (≈ 52.4 µg/mL)	62 (≈ 26 µg/mL)	125 (≈ 52.4 µg/mL)	16 (≈ 6.71 µg/mL)	8 (≈ 3.35 µg/mL)	16 (≈ 6.71 µg/mL)	32 (≈ 13.4 µg/mL)
O=[N+]([O-])c1cc(CSc2nnn(Cc3ccc(Cl)c(Cl)c3)n2)cc([N+](=O)[O-])c1	125 (≈ 55.2 µg/mL)	8 (≈ 3.53 µg/mL)	150	125 (≈ 55.2 µg/mL)	32 (≈ 14.1 µg/mL)	32 (≈ 14.1 µg/mL)	32 (≈ 14.1 µg/mL)	1 (≈ 0.441 µg/mL)	1 (≈ 0.441 µg/mL)	16 (≈ 7.06 µg/mL)	16 (≈ 7.06 µg/mL)
NNC(=O)c1ccncc1 [ISONIAZID]	250 (≈ 34.3 µg/mL)	250 (≈ 34.3 µg/mL)		250 (≈ 34.3 µg/mL)	4 (≈ 0.549 µg/mL)	4 (≈ 0.549 µg/mL)	250 (≈ 34.3 µg/mL)	1 (≈ 0.137 µg/mL)	0.5 (≈ 0.0686 µg/mL)	4 (≈ 0.549 µg/mL)	250 (≈ 34.3 µg/mL)
O=[N+]([O-])c1ccc(C[Se]c2nnn(Cc3ccccc3)n2)c([N+](=O)[O-])c1	62 (≈ 26 µg/mL)	16 (≈ 6.71 µg/mL)	22	62 (≈ 26 µg/mL)	62 (≈ 26 µg/mL)	32 (≈ 13.4 µg/mL)	32 (≈ 13.4 µg/mL)	16 (≈ 6.71 µg/mL)	16 (≈ 6.71 µg/mL)	32 (≈ 13.4 µg/mL)	16 (≈ 6.71 µg/mL)
Cn1nnc(SCc2cc([N+](=O)[O-])cc([N+](=O)[O-])c2)n1	125 (≈ 37 µg/mL)	4 (≈ 1.19 µg/mL)		250 (≈ 74.1 µg/mL)	16 (≈ 4.74 µg/mL)	16 (≈ 4.74 µg/mL)	8 (≈ 2.37 µg/mL)	4 (≈ 1.19 µg/mL)	2 (≈ 0.593 µg/mL)	8 (≈ 2.37 µg/mL)	8 (≈ 2.37 µg/mL)
Cn1nnnc1[Se]Cc1cc([N+](=O)[O-])cc([N+](=O)[O-])c1	500 (≈ 172 µg/mL)	8 (≈ 2.75 µg/mL)		500 (≈ 172 µg/mL)	32 (≈ 11 µg/mL)	32 (≈ 11 µg/mL)	32 (≈ 11 µg/mL)	8 (≈ 2.75 µg/mL)	8 (≈ 2.75 µg/mL)	16 (≈ 5.49 µg/mL)	32 (≈ 11 µg/mL)
O=[N+]([O-])c1cc(Cn2nnc([Se]Cc3ccccc3)n2)cc([N+](=O)[O-])c1	16 (≈ 6.71 µg/mL)	8 (≈ 3.35 µg/mL)	118	16 (≈ 6.71 µg/mL)	32 (≈ 13.4 µg/mL)	32 (≈ 13.4 µg/mL)	32 (≈ 13.4 µg/mL)	8 (≈ 3.35 µg/mL)	8 (≈ 3.35 µg/mL)	16 (≈ 6.71 µg/mL)	16 (≈ 6.71 µg/mL)
O=[N+]([O-])c1ccc(CSc2nnn(Cc3ccc([N+](=O)[O-])cc3)n2)cc1	250 (≈ 93.1 µg/mL)	250 (≈ 93.1 µg/mL)		250 (≈ 93.1 µg/mL)	250 (≈ 93.1 µg/mL)	250 (≈ 93.1 µg/mL)	250 (≈ 93.1 µg/mL)	250 (≈ 93.1 µg/mL)	250 (≈ 93.1 µg/mL)	250 (≈ 93.1 µg/mL)	250 (≈ 93.1 µg/mL)
COc1ccc(C[Se]c2nnnn2Cc2cc([N+](=O)[O-])cc([N+](=O)[O-])c2)cc1	125 (≈ 56.2 µg/mL)	16 (≈ 7.19 µg/mL)		125 (≈ 56.2 µg/mL)	62 (≈ 27.9 µg/mL)	32 (≈ 14.4 µg/mL)	62 (≈ 27.9 µg/mL)	16 (≈ 7.19 µg/mL)	16 (≈ 7.19 µg/mL)	16 (≈ 7.19 µg/mL)	32 (≈ 14.4 µg/mL)
